We go through nine compounds from PubChem BioAssay AID1963829 (Molecular Pharmacology Branch, DTP, NCI, 2024).

The subject of the assay is 935938-334-R-J1-PDC complex spheroid viability. Description: Anticancer human tumor 935938-334-R-J1-PDC patient-derived small intestine adenocarcinoma cell line growth inhibition [POLQ]. Conditions: for viability, T/C: stronger effect = lower value. The method, then: Multicellular complex tumor spheroid response to Polymerase (POL) inhibitors (novobiocin, ART-558, RP6685) in combination with a variety of drugs and investigational agents in selected tumor cell lines
The POL inhibitors (novobiocin, ART-558, and RP6685) were evaluated both individually and in combination with standard of care and investigational anticancer small molecules within a complex spheroid model of solid tumors. . Complex spheroids include a stromal component modeled by human endothelial cells (HUVEC) and fibroblasts modeled by human mesenchymal stem cells (MSCs). The concentration ranges selected for each drug and investigational agent were based upon clinically achievable concentrations if the clinical Cmax of the agent was known.
Compounds. The drugs and investigational agents: novobiocin (NSC847541), ART-558 (NSC835418), RP-6685 (NSC848927), peposertib (NSC802822), ceralasertib (NSC780249), elimusertib (NSC800525), camonsertib (NSC841442), AZD-1390 (NSC803789), olaparib (NSC753686), talazoparib (NSC767125), rucaparib (NSC756644), sotorasib (NSC818433), MRTX-1133 (NSC836407), SN-38 (NSC673596), topotecan (NSC609699), epotoside (NSC141540), doxorubicin (NSC123127), gemcitabine (NSC613327), 5-fluorouracil (NSC19893), paclitaxel (NSC125973), vemurafenib (NSC761431), MSA-2 (NSC828583), SN-011 (NSC837082), adavosertib (NSC754352), prexasertib (NSC758257), carboplatin (NSC241240) and oxaliplatin (NSC266046), were obtained from the National Cancer Institute (NCI) Developmental Therapeutics Program Chemical Repository (21). The FDA-approved anticancer drug set is available from the Developmental Therapeutics Program at https://dtp.cancer.gov/organization/dscb/obtaining/. […] The stock solutions were prepared in dimethyl sulfoxide (DMSO, Sigma-Aldrich, St. Louis, MO, cat. D2650), except for the platinum compounds which were prepared in saline (Quality Biological, Gaithersburg, MD, cat. 114-055-101), at 800-fold the tested concentration and stored at -70 degrees C prior to their use. All drugs and investigational agents were tested over a range starting from a high concentration at or near the clinical Cmax and decreasing in half-log increments. If the clinical Cmax for an agent had not been determined, the highest concentration tested was 10 microM, except for SN-38, which was tested at a high concentration of 1 microM.
Cell Culture. All cells were maintained in an incubator at 37 degrees C and 5% CO2 with 95% humidity. The PDC lines were cultured according to standard operating procedures established by the NCI PDMR (https://pdmr.cancer.gov). Table 3 of the manuscript, lists the cell lines along with the number of the three cell types plated to form the mct-spheroids and media for tumor cell growth. After thawing, all PDC lines, except 997537-175-T-J1-PDC and 415267-285-R-J2-PDC, were cultured in Matrigel-coated flasks prepared with a working solution of 1X Ham's F-12 nutrient mix, without supplementation (Thermo Fisher Scientific, cat. 11765054), 100 U/mL penicillin-streptomycin (Thermo Fisher Scientific, cat. 15140122), and 2.5% Matrigel (Corning Inc., Corning, NY, cat. 354248) for the first three passages. The two PDC lines 997537-175-T-J1-PDC and 415267-285-R-J2-PDC were cultured on uncoated flasks. The 857933-349-R-J2-PDC line was cultured in 6C/Colon 1B media containing advanced DMEM/F-12 (Thermo Fisher Scientific, cat. 12634028), 10 mM HEPES (Thermo Fisher Scientific, cat. 15630080), 1X GlutaMAX supplement (Thermo Fisher Scientific, cat. 35050061), 0.1 mg/mL primocin (InvivoGen, San Diego, CA, cat. ant-pm-2), 10% defined fetal bovine serum, heat inactivated (HyClone Laboratories Inc., Logan, UT, cat. SH30070.03HI), 50% L-WRN conditioned media (ATCC, cat. CRL-3276), 1.25 mM N-Acetyl-L-cysteine (Sigma-Aldrich, cat. A9165), 10 mM nicotinamide (Sigma-Aldrich, cat. N0636), 1X B-27 supplement (Thermo Fisher Scientific, cat. 17504044), 1X N-2 supplement (Thermo Fisher Scientific, cat. […]

Several values for one entry are separate records, joined by “and”; a condition that tells them apart may be missing. Equal values may be shown once.
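Note: spheroids exposed to drugs for seven days before viability read.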
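Throughout, for viability, T/C: 100% = DMSO vehicle control wells.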

For the compound `Nc1ccc(C#CCN(C(=O)Cc2ncc(C(F)(F)F)cc2C(F)(F)F)c2ccc(F)cc2)nn1`, the concentration for half-maximal inhibition (IC50) (compound alone, run of 12/05/2023) is above 10 µM.
On to `O=c1[nH]cc(F)c(=O)[nH]1` + COC1C(OC(N)=O)C(O)C(Oc2ccc3c(O)c(NC(=O)c4ccc(O)c(CC=C(C)C)c4)c(=O)oc3c2C)OC1(C)C, for which the IC50 was above 10 µM (curve of first compound, second compound 0.0316 µM); above 10 µM (curve of first compound, second compound 0.1 µM); 4.82 µM (curve of first compound, second compound 0.316 µM); above 10 µM (curve of first compound, second compound 1 µM); 8.13 µM (curve of first compound, second compound 3.16 µM); above 10 µM (curve of first compound, second compound 10 µM). Moreover, the viability, T/C reads like this: (second compound 0.0316 µM, first compound 0.0316 µM) 85.7%; (second compound 0.0316 µM, first compound 0.1 µM) 96.3%; (second compound 0.0316 µM, first compound 0.316 µM) 76.8%; (second compound 0.0316 µM, first compound 1 µM) 71.9%; (second compound 0.0316 µM, first compound 3.16 µM) 67.4%; (second compound 0.0316 µM, first compound 10 µM) 57%. Also, the viability, T/C (second compound 0.1 µM, first compound 0.0316 µM) is 79.4%; the viability, T/C (second compound 0.1 µM, first compound 0.1 µM) was 103%; the viability, T/C (second compound 0.1 µM, first compound 0.316 µM) is 83.2%; the viability, T/C (second compound 0.1 µM, first compound 1 µM) was 63%; the viability, T/C (second compound 0.1 µM, first compound 3.16 µM) was 63.3%; the viability, T/C (second compound 0.1 µM, first compound 10 µM) was 55.9%. Besides, the viability, T/C by setting is: (second compound 0.316 µM, first compound 0.0316 µM) 103%; (second compound 0.316 µM, first compound 0.1 µM) 76.7%; (second compound 0.316 µM, first compound 0.316 µM) 71.9%; (second compound 0.316 µM, first compound 1 µM) 72.9%; (second compound 0.316 µM, first compound 3.16 µM) 60.5%; (second compound 0.316 µM, first compound 10 µM) 36.5%. The viability, T/C reads like this: (second compound 1 µM, first compound 0.0316 µM) 93%; (second compound 1 µM, first compound 0.1 µM) 96.4%; (second compound 1 µM, first compound 0.316 µM) 80.9%; (second compound 1 µM, first compound 1 µM) 52.8%; (second compound 1 µM, first compound 3.16 µM) 64.5%; (second compound 1 µM, first compound 10 µM) 51.1%. Besides, the viability, T/C by setting is: (second compound 3.16 µM, first compound 0.0316 µM) 87.8%; (second compound 3.16 µM, first compound 0.1 µM) 82.5%; (second compound 3.16 µM, first compound 0.316 µM) 73.3%; (second compound 3.16 µM, first compound 1 µM) 64.4%; (second compound 3.16 µM, first compound 3.16 µM) 58%; (second compound 3.16 µM, first compound 10 µM) 48%. The viability, T/C by setting is: (second compound 10 µM, first compound 0.0316 µM) 76.6%; (second compound 10 µM, first compound 0.1 µM) 82.4%; (second compound 10 µM, first compound 0.316 µM) 91.5%; (second compound 10 µM, first compound 1 µM) 67.3%; (second compound 10 µM, first compound 3.16 µM) 52.3%; (second compound 10 µM, first compound 10 µM) 51.3%.
As for `CCCS(=O)(=O)Nc1ccc(F)c(C(=O)c2c[nH]c3ncc(-c4ccc(Cl)cc4)cc23)c1F`, the viability, T/C is 113% and 92.8% and 116% (compound 0.0316 µM); 119% and 111% and 89.6% (compound 0.1 µM); 115% and 103% and 106% (compound 0.316 µM); 108% and 102% and 121% (compound 1 µM); 96.3% and 131% and 129% (compound 3.16 µM); 46.3% and 53.5% and 37.2% (compound 10 µM). Also, for the setting “curve of compound”, the IC50 is 9.27 µM and > 10 µM and 8.23 µM.
For the compound `COc1cccc(OCCCN)c1-c1cc(Nc2cnc(C#N)cn2)n[nH]1`, the viability, T/C was 93.3% and 117% and 102% (compound 0.00316 µM); 77.8% and 102% and 85.5% (compound 0.01 µM); 53.3% and 60.4% and 57.6% (compound 0.0316 µM); 22.6% and 36.9% and 41.6% (compound 0.1 µM); 11.3% and 14.1% and 8.34% (compound 0.316 µM); 10% and 10.2% and 9.09% (compound 1 µM). Further, the IC50 (curve of compound) was 0.0336 µM and 0.0538 µM and 0.0509 µM.
As for `O=C(c1cc(Cc2n[nH]c(=O)c3ccccc23)ccc1F)N1CCN(C(=O)C2CC2)CC1`, the viability, T/C runs as follows: (compound 0.0316 µM) 88.4% and 80.5% and 75%; (compound 0.1 µM) 103% and 70.2% and 77.2%; (compound 0.316 µM) 100% and 67.5% and 112%; (compound 1 µM) 94.9% and 67.4% and 68.7%; (compound 3.16 µM) 72% and 64.6% and 73.7%; (compound 10 µM) 54.9% and 55.4% and 55.1%. The IC50 (curve of compound) was above 10 µM.
In the case of `CC1COCCN1c1cc(-c2ccnn2C)c2ccnc(-c3ccn[nH]3)c2n1` (stereo unspecified), the viability, T/C by setting is: (compound 0.0316 µM) 82.6% and 80.7% and 109%; (compound 0.1 µM) 48.1% and 37.2% and 43.2%; (compound 0.316 µM) 23.7% and 26.6% and 25.3%; (compound 1 µM) 19.7% and 18.6% and 15.1%; (compound 3.16 µM) 17.2% and 15.3% and 17.5%; (compound 10 µM) 19.2% and 18.9% and 18.3%. In addition, the IC50 (curve of compound) is 0.0939 µM and 0.0731 µM and 0.0896 µM.
Turning to `Cn1ncnc1[C@H]1c2n[nH]c(=O)c3cc(F)cc(c23)N[C@@H]1c1ccc(F)cc1`, the viability, T/C by setting is: (compound 0.000316 µM) 87.9% and 80.8% and 110%; (compound 0.001 µM) 83.2% and 90.4% and 112%; (compound 0.00316 µM) 82.5% and 83.7% and 85.8%; (compound 0.01 µM) 93.8% and 99.9% and 105%; (compound 0.0316 µM) 113% and 94.7% and 116%; (compound 0.1 µM) 99.4% and 96.1% and 76.1%. For the same compound, the 50% inhibitory concentration (IC50) (curve of compound) was above 0.1 µM.
As to `COC1C(OC(N)=O)C(O)C(Oc2ccc3c(O)c(NC(=O)c4ccc(O)c(CC=C(C)C)c4)c(=O)oc3c2C)OC1(C)C` (stereo unspecified), the half-maximal inhibitory concentration (IC50) (compound alone, run of 11/27/2023) was above 10 µM.
Turning to `C=CC(=O)N1CCN(c2nc(=O)n(-c3c(C)ccnc3C(C)C)c3nc(-c4c(O)cccc4F)c(F)cc23)C(C)C1` (stereo unspecified), the viability, T/C (compound 0.0316 µM) is 83.1% and 99.4% and 81.4%; the viability, T/C (compound 0.1 µM) was 94.9% and 68.4% and 69.6%; the viability, T/C (compound 0.316 µM) is 89.5% and 99.7% and 67.9%; the viability, T/C (compound 1 µM) was 89.7% and 115% and 113%; the viability, T/C (compound 3.16 µM) was 102% and 110% and 112%; the viability, T/C (compound 10 µM) was 99.6% and 131% and 105%. Moreover, under “curve of compound”, the IC50 is above 10 µM.
